According to patent publication US8053424B2, “Composition and method of treating hearing loss” (The Regents of the University of Michigan, priority 2006, dated 2011):

Test system: guinea pigs
Assay: Threshold shift by auditory brainstem response (ABR) testing after 120 dB SPL octave band noise
Type: in vivo, guinea pigs (NIH outbred strain)
Conditions: FIG. 1-3 comparison between treatments
Procedure: In guinea pig studies, hearing loss and the efficacy of the composition of the subject invention for treating hearing loss is measured as an average difference in threshold shift from baseline threshold sensitivity at 4, 8, and 16 kHz, as compared to an untreated control, after exposure to 120 decibel SPL Octave Band Noise centered at 4 kHz for five hours.
To obtain those results, the composition is typically injected each day, twice a day, for three days prior to exposure to the noise and injected again each day for at least five days, typically up to ten days, subsequent to the exposure to the noise. The threshold shift is measured 10 days after exposure to the noise using auditory brainstem response (ABR) testing.
In order to determine efficacy of the composition of the present invention in treating hearing loss, baseline threshold sensitivity of the guinea pigs is measured binaurally using auditory brainstem response testing at 4, 8, and 16 kHz.
For Example 1, the guinea pigs are first treated each day, twice a day, for three days prior to exposure to 120-dB SPL Octave Band Noise centered at 4 kHz for 5 hours. The noise causes trauma to middle or inner ears of the guinea pigs and is sufficient to cause permanent threshold shift, i.e., permanent hearing loss. […] Ten days after the noise exposure, auditory sensitivity is measured using ABR. […]

Structure (SMILES)	effect in minimizing threshold shift (additive effect), in words
Cc1c(C)c2c(c(C)c1O)CCC(C)(C(=O)O)O2 (centres unmarked) [Trolox®]	do not exhibit the same additive effect
O=C([O-])c1ccccc1O.[Na+] [salicylate, sodium salicylate]	do not exhibit the same additive effect
